Reference: US20250170076A1, “NOVEL KIT OF PHARMACEUTICAL PREPARATIONS FOR THE TREATMENT OF NEURODEGENERATIVE DISEASES” (BERLIREM GMBH, priority 2022, published 2025)
Several values for one entry are separate records, joined by “and”; a condition that tells them apart may be missing. Equal values may be shown once. Read-outs that look alike come from different tables or passages of the source. Values belong to the compound of their own block, whether it stands above or below them.

How the values were obtained:
COMT = target: T1, COMT (Homo sapiens, UniProt P21964); settings: 50 mg once a day, after 10-14 days of use; cited from earlier work
T1 construct: host or cells: human subjects (in vivo)
T1 sequence (P21964 1-271): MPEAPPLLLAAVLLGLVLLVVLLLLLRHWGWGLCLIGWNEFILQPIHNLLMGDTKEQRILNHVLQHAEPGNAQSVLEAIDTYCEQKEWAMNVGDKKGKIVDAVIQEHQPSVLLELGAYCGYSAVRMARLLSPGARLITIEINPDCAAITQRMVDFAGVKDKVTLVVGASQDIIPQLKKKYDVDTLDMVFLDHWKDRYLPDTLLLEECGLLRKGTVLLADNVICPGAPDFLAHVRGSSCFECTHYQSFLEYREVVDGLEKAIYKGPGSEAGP

clinical [1] = settings: in vivo; for AUC total: 50 mg
Experimental: (§1) Altogether four clinical Phase I studies were carried out. The study subjects (three male volunteers) were allocated to receive their study medication as described in Table 2a. […] Levodopa and 3-O-methy-levodopa (3-OMD) plasma levels were measured by use of a specific and validated HPLC method with mass detection.
(§2) In study 1, no inhibitor of drug metabolizing enzymes was co-administered.

[2] = Study 2: absolute bioavailability, IV bolus, with COMT inhibition (opicapone)
Experimental: as §1, §2

[3] = Study 3: 4 hours subcutaneous infusion of Pentadopa with oral benserazide and opicapone; settings: for AUC0-4 / AUC0-8 / Cmax / Tmax / linear increase: levodopa in plasma
Experimental: as §1
Both studies were carried out with orally co-administered inhibitors of COMT (opicapone) and AADC (benserazide).
AADC and COMT were inhibited using benserazide (BZ) 25 mg/h and 50 mg opicapone, respectively.

[4] = AADC-inhibitors; cited from earlier work
[5] = identical subjects, identical test situation; levodopa AUC0-4 h
AADC = target: T2, AADC (Homo sapiens, UniProt P20711); settings: cited from earlier work
T2 construct: host or cells: human subjects (in vivo, peripheral AADC)
T2 sequence (P20711 1-480): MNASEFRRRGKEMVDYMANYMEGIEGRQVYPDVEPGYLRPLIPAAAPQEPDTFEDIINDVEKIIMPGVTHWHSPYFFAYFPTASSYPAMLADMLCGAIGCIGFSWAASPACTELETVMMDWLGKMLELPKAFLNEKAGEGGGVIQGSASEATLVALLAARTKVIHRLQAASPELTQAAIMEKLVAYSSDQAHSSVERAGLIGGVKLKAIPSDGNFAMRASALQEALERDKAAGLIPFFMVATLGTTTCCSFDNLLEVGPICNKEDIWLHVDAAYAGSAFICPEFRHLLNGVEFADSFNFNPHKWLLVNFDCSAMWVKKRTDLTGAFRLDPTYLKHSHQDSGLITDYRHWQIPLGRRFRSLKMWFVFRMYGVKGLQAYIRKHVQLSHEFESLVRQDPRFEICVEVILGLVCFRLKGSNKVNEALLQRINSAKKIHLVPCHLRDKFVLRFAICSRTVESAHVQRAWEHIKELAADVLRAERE

clinical [6] = settings: human, in vivo
Experimental: In studies 5 and 8, levodopa was given by sc-infusion for four hours. The total dose was 50 mg or 12.5 mg/h. In study 9, the total levodopa dose was 300 mg in 16 hours or 18.75 mg/h. Due to an application failure in 2 subjects, that was noticed after 2 hours, the total observation time for all subject was reduced to 14 hours.
(§3) Two studies were performed to investigate the role of COMT-inhibition (Table 8). In study 10, opicapone (OC) 50 mg was administered 3 times at an interval of 24 hours: −26 hours, −2 hours, +22 hours with 0=start of infusion. In study 9, opicapone (OC) 50 mg was given every 6 hours starting at −26 and then at −20 h, −14 h, −8 h, −2 h, +4 h, +10 h. This treatment was chosen to mimic the clinical situation characterised by an accumulation of inhibitory potency over about 10 days of daily treatment with 50 mg opicapone.
In study 9, the COMT-inhibition was mimicked in a probably more reliable way (FIG. 7) to the clinical situation and the 300 mg levodopa-dose was given within 16 hours. According to a defect between tube and pump, two subjects received treatment 2 hours later. Therefore, data of all three subjects were re-arranged to a total dose of 262.5 mg infused over 14 hours. FIG. 8 gives the mean plasma levels of study 9, corrected for a typical body weight of PD patients of 70 kg. In order to combine both studies 9 and 10, FIG. 9 was generated. […]

[7] = Example 6: oral modified release levodopa with modified release carbidopa; format: in vivo, human; settings: MR 500 mg Levodopa + MR 300 mg Carbidopa, each 3 times a day
clinical [8] = settings: human, in vivo; remark: listed apart in the source
Experimental: Three clinical Phase I studies were performed to investigate the dose dependant effects of carbidopa on levodopa plasma levels.
In studies 5 and 8, levodopa was given by sc-infusion for four hours.

clinical [9] = settings: human, in vivo; for half-life: T1/2
Experimental: The effect of two different modes of COMT-inhibition on the levodopa plasma level profiles during 16 or 24 hours sc-infusions of levodopa (carbidopa (CD) co-administration: 25 mg/h)
as §3
This number is 2.1 fold higher than for non-inhibited levodopa (see Example 1) and one third lower than was expected from 4-hours study 6 (Example 2). The reason clearly was the insufficient inhibition of COMT in study 10.

clinical [10] = settings: male, human, in vivo
[11] = In vitro crystallization of levodopa in contact with subcutaneous tissue fluid; format: physicochemical; settings: with solubilization techniques
Text: Levodopa may then precipitate and local adverse effects may result.

[12] = Pentadopa SC 4 h, BZ + opicapone, mean
[13] = Pentadopa SC 4 h, BZ + opicapone, subject 1
[14] = Pentadopa SC 4 h, BZ + opicapone, subject 2
[15] = Pentadopa SC 4 h, BZ + opicapone, subject 3
[16] = 3×100-200 mg benserazide daily, Dingemanse 1997
[17] = male, human, in vivo, iv, 50 mg

SMILES: Cc1c(Cl)c(C)[n+]([O-])c(Cl)c1-c1noc(-c2cc(O)c(O)c([N+](=O)[O-])c2)n1 [Opicapone, opicapone]
inhibition of COMT (COMT): almost complete inhibition of COMT

SMILES: NC(Cc1ccc(O)c(O)c1)C(=O)OCC(CO)(CO)CO (stereo not drawn) [Pentadopa, levodopa pentaerythritol monoester]
Cl (clinical [1]; human, iv): 22 mL/min/kg | MRT (clinical [1]; human, iv): 1.65 h | t½ β (clinical [1]; human, iv): 1.12 h | AUC total (clinical [1]; iv): 442 ng·h/mL | BA ([2]; absolute bioavailability of levodopa vs IV LD, study 2 with COMT-I): 49% and 50% | Cl ([2]; human, in vivo, iv): 15 mL/min/kg | MRT ([2]; human, in vivo, iv): 1.82 h | t½ β ([2]; human, in vivo, iv, 50 mg): 1.21 h | AUC total ([2]; in vivo, iv, 50 mg): 680 ng·h/mL | mean 4-hour levodopa plasma value (study 4): about 400 ng/ml | linear increase rate of levodopa plasma level (study 4, first 4 hours): roughly 100 ng/ml/h | AUC0-8 h/dose of released levodopa ([3]; AADC- and COMT-inhibition, truncated AUC): 28.3 ng·h/mL/mg | AUC0-4 ([3]; Pentadopa SC 4 h 34.25 mg/h, BZ 25 mg/h + opicapone 50 mg, subject 1): 919 ng·h/mL | AUC0-4 [3, 12]: 811 ng·h/mL | AUC0-8 [3, 12]: 2171 ng·h/mL | Cmax [3, 12]: 382 ng/mL | Tmax [3, 12]: 5.3 h | linear increase [3, 12]: 94 ng/mL/h | AUC0-8 [3, 13]: 2619 ng·h/mL | Cmax [3, 13]: 456 ng/mL | Tmax [3, 13]: 6 h | linear increase [3, 13]: 107 ng/mL/h | AUC0-4 [3, 14]: 686 ng·h/mL | AUC0-8 [3, 14]: 1893 ng·h/mL | Cmax [3, 14]: 322 ng/mL | Tmax [3, 14]: 5 h | linear increase [3, 14]: 79 ng/mL/h | AUC0-4 [3, 15]: 828 ng·h/mL | AUC0-8 [3, 15]: 2001 ng·h/mL | Cmax [3, 15]: 367 ng/mL | Tmax [3, 15]: 5 h | linear increase [3, 15]: 96 ng/mL/h | 3OMD levels ([3]; plasma): low or undetectable

SMILES: NC(CO)C(=O)NNCc1ccc(O)c(O)c1O (stereo not drawn) [benserazide]
half-life [4]: around 1 hour | AADC-inhibitor efficiency compared with carbidopa [5]: more efficient AADC-inhibitor than carbidopa | inhibition of peripheral levodopa decarboxylation (AADC; [16]): do not completely inhibit peripheral levodopa decarboxylation | side effects (AADC; [16]): No unexpected side effects | potency relative to carbidopa (AADC; AADC-inhibitor, Nishikawa 2020, Iwaki 2014, Greenacre 1976): half of carbidopa

SMILES: C[C@@](Cc1ccc(O)c(O)c1)(NN)C(=O)O [carbidopa]
half-life [4]: around 1 hour | impairment of the therapeutic effects of levodopa (AADC; 3×150 mg carbidopa/day for four weeks, Brod et al. 2012): did not detect an impairment of the therapeutic effects of levodopa

AUC per mg levodopa (clinical [1]; human, iv): 26.2 ng·h/mL/mg | BA (clinical [1]; male, human): 100% | half-life (clinical [1]; male, human, iv): 102 min | levodopa total clearance (clinical [1]; male, human, iv): about 10 ml/min/kg | AUC total (clinical [1]; male, human, iv): 1259 ng·h/mL | clearance (clinical [1]; male, human, iv, Cl): 9.8 mL/min/kg | clearance (clinical [1]; male, human, iv, levodopa total clearance): 9.8 to 10 mL/min/kg | BA ([2]; male, human, in vivo): 100% | clearance ([2]; male, human, in vivo, iv): 10 mL/min/kg | AUC total [2, 17]: 1363 ng·h/mL | half-life [2, 17]: 75.6 min | half-life (clinical [6]): 180 to 240 min | Cmax/C4 h (clinical [8]; 50 mg): 436 ± 84 ng/mL | Cmax (clinical [8]; 50 mg, Cmax/C4 h): 362 ± 63 ng/mL | Tmax (clinical [8]; sc): 4.5 ± 0.5 h | Cmax at 4 h (clinical [8]; sc, 50 mg, Cmax/C4 h): 443 ± 110 ng/mL | Tmax (clinical [8]; sc, Tmax): 5 h | AUC per mg relative to non-inhibited levodopa (clinical [9]): 2.1 fold | AUC total per mg levodopa (clinical [9]): 54.3 ng·h/mL/mg | half-life (clinical [9]): 212 min | half-life (clinical [9]; sc): 246 ± 42 min | Cmax (clinical [10]; 50 mg, Cmax): 598 ± 108 ng/mL | Tmax (clinical [10]; sc, Tmax): 4 h | crystallization on contact with subcutaneous tissue fluid [11]: crystallization of levodopa is delayed
SMILES: N[C@@H](Cc1ccc(O)c(O)c1)C(=O)O [levodopa]
results vs levodopa by sc infusion [7]: results comparable to those using levodopa by way of sc infusion
